Measured values from patent US11793816B2, “Methods for enhancing cytotoxic cancer therapy through inhibition of ATG4B” (Northwestern University, priority 2019, dated 2023).

Assays:
Type in all cases: cell-based
[1] = system: LC3B lipidation and p62/SQSTM1 in GSCs and GBM cells; test: Immunoblot of autophagy markers after NSC, IR, TMZ; conditions: NSC with IR or/and TMZ
Description: (A) GBM stem-like cells, GSCTS576, and patient-derived xenograft cells, GBM44, were treated with NSC, IR or/and TMZ at the indicated concentrations and combinations for 72 hours. Thereafter, cells were analyzed for cellular viability. Data are shown as mean±SD, n=3 of biological replicates. #, Combination vs. TMZ, P<0.01; &, Combination vs. IR, P<0.01; *, Combination vs. NSC, P<0.01 (B) GSCTS576 and GBM44 cells were treated with NSC, IR or and TMZ with indicated concentration or does for 48 hours, stained with Annexin V/PI, and analyzed by flow cytometry; n=3 biological replicates. Data are shown as mean±SD. #, Combination vs. TMZ, P<0.01; &, Combination vs. IR, P<0.01; *, Combination vs. NSC, P<0.01. (C) TS576 GSCs and GBM44 with indicated treatments were collected and analyzed for levels of the indicated proteins. […]
To determine the effect of combination treatment with NSC185058 and irradiation (IR) or/and TMZ, stem-like glioma cells (GSC83) and patient-derived xenograft GBM (GBM43) cells, were treated with NSC185058, TMZ, IR or the combination of two or three treatments and examined cellular proliferation modulation. […] Toward this end, we analyzed protein expression of autophagy marker protein LC3B and p62/SQSTM1, an established autophagy substrate, DNA damage indicator γH2AFX/γH2AX and apoptosis indicator cleaved CASP3/caspase-3 in both tested cell lines.

[2] = system: mTORC1 and mTORC2 activity in GSC M83 and JK83 cells; test: Immunoblot of mTORC1 and mTORC2 activity in GSCs; conditions: GSC83 and JK83 cells, 72 hr
Description: (§1) FIG. 5. A mTORC1/2 inhibitor AZD2014 inhibited cell survival, mTORC1 and mTORC2 activities in GSCs and glioma cells. (A) GSC M83 and JK83 and glioma cells U87 were treated with indicated concentration of AZD2014 for 72 h, then cell viability was evaluated. (B) GSC M83 and JK83 were treated with the indicated concentration of AZD2014 for 1 hr, or with 2 μM AZD2014 for the specified time. Cells were collected for immunoblot analysis. β-actin was used as a loading control; Results are representative of 2 independent experiments. *P<0.05, **P<0.01, paired two-way Student's t-test. Data are representative from three independent experiments with similar results.
(§2) FIG. 6. NSC enhanced the cytotoxicity of a mTORC1/2 inhibitor AZD2014 in GSCs. (A) GSC M83 and JK83 were exposed to DMSO control vs AZD2014 vs NSCs vs AZD2014 in combination with NSC for 72 hr. Cells were collected for immunoblot analysis using indicated antibodies. (B) Immunofluorescence analyses for LC3B puncta in GSC M83 and JK83 cells with indicated treatments. (C and D) GSC M83 and JK83 and/or neural progenitor cells (NPC) were treated as indicated in (A), cell viability was tested at 72 h after treatment (C), and cell apoptosis was measured by Annexin V FACS assay 48 h after treatment. Data are representative from three independent experiments with similar results.
IB assays were performed as previously described (Huang et al., 2016b). Specific antibodies were used according to the manufacturer's instructions: LC3B (#3868S), pAKT (Ser473; 4060), pAKT(Thr308; 4056), AKT (4691), pS6(S235/236; 2211), S6 (2317), phosphorylated 4E-binding protein 1 (p4EBP1) (Thr37/46; 2855), 4EBP1 (9644), p-mTOR (Ser2448; 2971S), p-mTOR (Ser2481; 2974S), mTOR (2972S), pULK1(Ser317; 14202T), pULK1 (Ser757; 8054T), ULK1(6439), LAMP2 (49067S) were from Cell Signaling Technology. Anti-β-actin (SC-47778) and anti-SQSTM1/p62 (SC-28359) antibodies were from Santa Cruz Biotechnology. An anti-Ki-67 antibody (AB9260) was from EMD Millipore.
mTOR kinases are crucial regulators of glioma cell growth, proliferation and survival (Akhavan et al., 2010). […] A strong inhibition was achieved by 1 μM with complete block of mTORC1/2 activities at 2 μM (FIG. 5B).
Since autophagy activation is considered as a cytoprotective factor that contribute to tumor survival when challenged by therapies, it is proposed that block of autophagy activation by NSC would further enhanced the cytotoxicity of dual TORC1/2 inhibitor AZD2014.

[3] = system: LC3B, p62/SQSTM-1 and LAMP2 in GSC M83 and JK83 cells; test: Immunoblot of autophagy markers (LC3B, p62, LAMP2) in GSCs treated with AZD2014 and NSC; conditions: NSC in the presence of AZD2014
Description: as §1
as §2, with “results. […]” for “results.”

[4] = system: LC3B puncta in GSC M83 and JK83 cells; test: LC3B immunofluorescence (puncta, autophagosomes); conditions: NSC in cells treated with AZD2014
Description: as §2
Immunofluorescent staining. GSCs were seeded onto LabTek CC2-treated tissue culture slides (Thermo Fisher) and cultured for 24 hours. Cells were then fixed with 4% formaldehyde (Fisher) for 15 min, and permeabilized with 0.1% Triton X-100, and then blocked with AquaBlock (East Coast Bio, North Berwick, Me.) for 60 minutes. The slides were incubated with indicated primary antibodies according to the manufacturer's instructions. After being washed for three times with PBS-T, cells were incubated with secondary antibody (Alexa 488 and 594, 1:200) and DAPI-containing mounting solution Vectashield (Vector Laboratories). Cells were analyzed on a Nikon inverted microscope Eclipse Ti-U equipped with a digital camera. […]

With `S=C(Nc1ccccn1)c1ccccn1` [NSC185058, N-pyridin-2-yl-pyridine-2-carbothioamide] the “sensitization to IR or/and TMZ (LC3B lipidation, p62)” value [1] was “sensitized the tested cells to IR or/and TMZ by suppressing LC3B lipidation and increasing p62”, the “mTOR signaling and ULK1 phosphorylation” value [2] was “without affecting the mTOR signaling and ULK1 activity” and the “autophagy markers (LC3B conversion, p62 and LAMP2 degradation)” value [3] was “attenuated autophagy induction”. For the same molecule, the “autophagosomes number (LC3 B immunofluorescence)” value [4] was “markedly decreased”.
